From patent US20090104145A1, “Mixtures of Anthranilamide Invertebrate Pest Control Agents” (priority 2004, published 2009) come the findings set out here.

The assay deals with western flower thrip (Frankliniella occidentalis Pergande). Kind of assay: whole plant or invertebrate. The class given is in vivo. The following applies: Frankliniella occidentalis. How it is done: The pest control protection afforded by the mixtures or compositions is not limited, however, to these species. The analysis of synergism or antagonism between the mixtures or compositions was determined using Colby's equation. The average % mortality data for the test compounds alone were inserted into the Colby's equation. If the observed average % mortality was higher than “p”, the expected % mortality, the mixture or composition had synergistic effects. If the observed average % mortality was equal to or lower than the expected mortality, the mixture or composition either had no synergistic effect or an antagonistic effect. In these tests, Compound 1 is the compound of Formula 1.
Test compounds were formulated using a solution containing 10% acetone, 90% water and 300 ppm X-77® Spreader Lo-Foam Formula non-ionic surfactant containing alkylarylpolyoxyethylene, free fatty acids, glycols and isopropanol (Loveland Industries, Inc.) to provide the desired concentration in ppm. Formulated test solutions were then applied in 1 mL volumes through a SUJ2 atomizer nozzle with ⅛ JJ custom body (Spraying Systems Co.) positioned 1.27 cm (0.5 inches) above the top of each test unit.
For evaluating control of the western flower thrip (Frankliniella occidentalis Pergande) through contact and/or systemic means, each test unit consisted of a small open container with a 5- to 7-day-old bean (var. Soleil) plant inside.
Test solutions were formulated and sprayed with 3 replications as described for Test A. After spraying, the test units were allowed to dry for 1 hour, 22 to 27 adult thrips were added to each unit and then a black, screened cap was placed on top. The test units were held for 7 days at 25° C. and 45-55% relative humidity.

Where two headings read alike, the source gives them in different places.

One may read the mortality as the share of the test organisms that died. On to `CNC(=O)c1cc(C#N)cc(C)c1NC(=O)c1cc(Br)nn1-c1ncccc1Cl` [Compound 1, 3-bromo-N-[4-cyano-2-methyl-6-[(methylamino)carbonyl]phenyl]-1-(3-chloro-2-pyridinyl)-1H-pyrazole-5-carboxamide], for which the mortality at 0.3 ppm (Compound 1 0.3 ppm alone, read-out: % Mortality (observed)) came out at 25% and the mortality at 0.3 ppm (rate 0.3 ppm, read-out: % mortality (obs)) was found to be 42%. The mortality at […] (Compound 1 1.3 ppm alone, read-out: % Mortality (observed)) was 55% and the mortality at […] (rate 1.5 ppm, read-out: % mortality (obs)) turned out to be 50%. In addition, the mortality at 6 ppm runs as follows: (Compound 1 6 ppm alone, read-out: % Mortality (observed)) 72%; (rate 6 ppm, read-out: % mortality (obs)) 61%.
